# Laboratory results: patent publication US10202389B2, “Pyrazolopyrimidinyl inhibitors of ubiquitin-activating enzyme” (Millennium Pharmaceuticals, Inc., priority 2012, dated 2019)
# Target: recombinant human UAE (Homo sapiens (Human), UniProt P22314)
# Test: Ubiquitin Activating Enzyme (UAE) HTRF Assay
# Conditions: read-out: % inhibition @0.111 μM
# Experimental: After incubation for 120 minutes, quantification of the FRET is performed on the Pherostar (BMG).
# For compounds whose values are marked with an asterisk (*), mouse UAE was used. For all other compounds, human UAE was used.
# recombinant human UAE, sequence (P22314 whole entry): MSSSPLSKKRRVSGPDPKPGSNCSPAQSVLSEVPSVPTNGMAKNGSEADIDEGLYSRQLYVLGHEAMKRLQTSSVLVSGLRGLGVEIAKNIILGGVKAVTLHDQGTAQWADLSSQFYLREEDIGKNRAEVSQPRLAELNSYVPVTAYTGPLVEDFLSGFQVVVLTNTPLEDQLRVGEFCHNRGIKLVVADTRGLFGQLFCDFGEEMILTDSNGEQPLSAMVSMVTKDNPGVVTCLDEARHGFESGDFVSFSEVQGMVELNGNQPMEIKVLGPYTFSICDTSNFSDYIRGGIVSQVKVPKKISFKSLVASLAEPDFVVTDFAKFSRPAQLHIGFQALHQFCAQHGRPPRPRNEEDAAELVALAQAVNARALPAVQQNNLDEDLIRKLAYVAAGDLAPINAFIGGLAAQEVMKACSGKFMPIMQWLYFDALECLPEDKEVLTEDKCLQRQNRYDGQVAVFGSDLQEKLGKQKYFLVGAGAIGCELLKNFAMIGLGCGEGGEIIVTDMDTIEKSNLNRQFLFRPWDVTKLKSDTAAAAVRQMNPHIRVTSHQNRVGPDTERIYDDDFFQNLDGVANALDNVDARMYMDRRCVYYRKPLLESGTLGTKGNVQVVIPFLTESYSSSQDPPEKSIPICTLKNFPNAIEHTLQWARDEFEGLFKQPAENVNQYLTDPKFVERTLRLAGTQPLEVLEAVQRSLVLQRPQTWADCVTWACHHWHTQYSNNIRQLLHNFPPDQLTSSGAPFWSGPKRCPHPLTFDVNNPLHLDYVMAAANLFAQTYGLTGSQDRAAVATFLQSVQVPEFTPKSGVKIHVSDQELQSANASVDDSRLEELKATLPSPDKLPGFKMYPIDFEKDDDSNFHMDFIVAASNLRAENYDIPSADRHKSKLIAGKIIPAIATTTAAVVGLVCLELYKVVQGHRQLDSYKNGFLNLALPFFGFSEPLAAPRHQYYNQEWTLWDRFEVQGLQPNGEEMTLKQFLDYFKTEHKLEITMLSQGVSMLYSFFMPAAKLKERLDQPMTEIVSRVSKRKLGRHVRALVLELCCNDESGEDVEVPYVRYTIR
row,Compound,inhibition at 0.111 µM [%]
1,"COc1ccccc1-c1cc2nccc(N[C@@H]3C[C@H](COS(N)(=O)=O)[C@@H](O)[C@H]3O)n2n1 (relative stereo) [Compound I-072, (rac)-((1R,2R,3S,4R)-2,3-dihydroxy-4-(2-(2-methoxyphenyl)pyrazolo[1,5-a]pyrimidin-7-ylamino)cyclopentyl)methyl rel-sulfamate]",100
2,"Cc1cnc2cc(-c3ccccc3)nn2c1N[C@@H]1C[C@H](COS(N)(=O)=O)[C@@H](O)[C@H]1O (relative stereo) [Compound I-089, (rac)-{(1R,2R,3S,4R)-2,3-dihydroxy-4-[(6-methyl-2-phenylpyrazolo[1,5-a]pyrimidin-7-yl)amino]cyclopentyl}methyl rel-sulfamate]",27
3,"NS(=O)(=O)OC[C@H]1C[C@@H](Nc2ccnc3cc(-c4ccnc(C(F)(F)F)c4)nn23)[C@H](O)[C@@H]1O (relative stereo) [Compound I-059, (rac)-((1R,2R,3S,4R)-2,3-dihydroxy-4-(2-(2-(trifluoromethyl)pyridin-4-yl)pyrazolo[1,5-a]pyrimidin-7-ylamino)cyclopentyl)methyl rel-sulfamate]",94
4,"NS(=O)(=O)OC[C@H]1C[C@@H](Nc2ccnc3cc(-c4csc5ccccc45)nn23)[C@H](O)[C@@H]1O (relative stereo) [Compound I-022, (rac)-((1R,2R,3S,4R)-4-(2-(benzo[b]thiophen-3-yl)pyrazolo[1,5-a]pyrimidin-7-ylamino)-2,3-dihydroxycyclopentyl)methyl rel-sulfamate]",100
5,"NS(=O)(=O)OC[C@H]1C[C@@H](Nc2ccnc3cc(-c4cccc5cccnc45)nn23)[C@H](O)[C@@H]1O (relative stereo) [Compound I-017, (rac)-((1R,2R,3S,4R)-2,3-Dihydroxy-4-((2-(quinolin-8-yl)pyrazolo[1,5-a]pyrimidin-7-yl)amino)cyclopentyl)methyl rel-sulfamate]",100
6,"COc1ccc(Cl)cc1-c1cc2nccc(N[C@@H]3C[C@H](COS(N)(=O)=O)[C@@H](O)[C@H]3O)n2n1 (relative stereo) [Compound I-020, (rac)-((1R,2R,3S,4R)-4-(2-(5-chloro-2-methoxyphenyl)pyrazolo[1,5-a]pyrimidin-7-ylamino)-2,3-dihydroxycyclopentyl)methyl rel-sulfamate]",100
7,"NS(=O)(=O)OC[C@H]1C[C@@H](Nc2ccnc3cc(-c4ccccc4SC(F)(F)F)nn23)[C@H](O)[C@@H]1O (relative stereo) [Compound I-079, (rac)-((1R,2R,3S,4R)-2,3-dihydroxy-4-(2-(2-(trifluoromethylthio)phenyl)pyrazolo[1,5-a]pyrimidin-7-ylamino)cyclopentyl)methyl rel-sulfamate]",75
8,"Cc1ccc(Cl)cc1-c1cc2nccc(N[C@@H]3C[C@H](COS(N)(=O)=O)[C@@H](O)[C@H]3O)n2n1 (relative stereo) [Compound I-021, (rac)-((1R,2R,3S,4R)-4-(2-(5-chloro-2-methylphenyl)pyrazolo[1,5-a]pyrimidin-7-ylamino)-2,3-dihydroxycyclopentyl)methyl rel-sulfamate]",97
9,"NS(=O)(=O)OC[C@H]1C[C@@H](Nc2ccnc3cc(-c4c(OC(F)F)ccc5ccccc45)nn23)[C@H](O)[C@@H]1O [Compound I-110, (s.e.)-((1R,2R,3S,4R)-4-(2-(2-(difluoromethoxy)naphthalen-1-yl)pyrazolo[1,5-a]pyrimidin-7-ylamino)-2,3-dihydroxycyclopentyl)methyl sulfamate]",100
10,"CCc1ccc2sc(-c3cc4nccc(N[C@@H]5C[C@H](COS(N)(=O)=O)[C@@H](O)[C@H]5O)n4n3)cc2c1 (relative stereo) [Compound I-095, (rac)-((1R,2R,3S,4R)-4-(2-(5-ethylbenzo[b]thiophen-2-yl)pyrazolo[1,5-a]pyrimidin-7-ylamino)-2,3-dihydroxycyclopentyl)methyl rel-sulfamate]",70
11,"NS(=O)(=O)OC[C@H]1C[C@@H](Nc2ccnc3cc(-c4cccc(N5CCCC5=O)c4)nn23)[C@H](O)[C@@H]1O (relative stereo) [Compound I-087, (rac)-((1R,2R,3S,4R)-2,3-dihydroxy-4-(2-(3-(2-oxopyrrolidin-1-yl)phenyl)pyrazolo[1,5-a]pyrimidin-7-ylamino)cyclopentyl)methyl rel-sulfamate]",100
12,"NS(=O)(=O)OC[C@H]1C[C@@H](Nc2ccnc3cc(-c4cncc(-c5ccccc5)n4)nn23)[C@H](O)[C@@H]1O (relative stereo) [Compound I-121, (rac)-((1R,2R,3S,4R)-2,3-dihydroxy-4-{[2-(6-phenylpyrazin-2-yl)pyrazolo[1,5-a]pyrimidin-7-yl]aminolcyclopentyl)methylrel-sulfamate]",100
13,"COc1cc(F)ccc1-c1cc2nccc(N[C@@H]3C[C@H](COS(N)(=O)=O)[C@@H](O)[C@H]3O)n2n1 (relative stereo) [Compound I-070, (rac)-((1R,2R,3S,4R)-4-(2-(4-fluoro-2-methoxyphenyl)pyrazolo[1,5-a]pyrimidin-7-ylamino)-2,3-dihydroxycyclopentyl)methyl rel-sulfamate]",99
14,"NS(=O)(=O)OC[C@H]1C[C@@H](Nc2c(Cl)cnc3c(Cl)c(-c4cccc(SC(F)(F)F)c4)nn23)[C@H](O)[C@@H]1O [Compound I-124, (s.e.)-{(1R,2R,3S,4R)-4-[(3,6-dichloro-2-{3-[(trifluoromethyl)sulfanyl]phenyl}pyrazolo[1,5-a]pyrimidin-7-yl)amino]-2,3-dihydroxycyclopentyl}methyl sulfamate]",20
15,"NS(=O)(=O)OC[C@H]1C[C@@H](Nc2ccnc3cc(-c4cccc(SC(F)(F)F)c4)nn23)[C@H](O)[C@@H]1O [Compound I-101, (s.e.)-((1R,2R,3S,4R)-2,3-dihydroxy-4-(2-(3-(trifluoromethylthio)phenyl)pyrazolo[1,5-a]pyrimidin-7-ylamino)cyclopentyl)methyl sulfamate]",99
16,"NS(=O)(=O)OC[C@H]1C[C@@H](Nc2ccnc3cc(-c4cccc5cnccc45)nn23)[C@H](O)[C@@H]1O (relative stereo) [Compound I-027, (rac)-((1R,2R,3S,4R)-2,3-dihydroxy-4-(2-(isoquinolin-5-yl)pyrazolo[1,5-a]pyrimidin-7-ylamino)cyclopentyl)methyl rel-sulfamate]",100

# Second part, the molecule after the results:
row,inhibition at 0.111 µM [%],Compound
1,100,"NS(=O)(=O)OC[C@H]1C[C@@H](Nc2ccnc3cc(-c4ccc5ncccc5c4)nn23)[C@H](O)[C@@H]1O (relative stereo) [Compound I-034, (rac)-((1R,2R,3S,4R)-2,3-dihydroxy-4-(2-(quinolin-6-yl)pyrazolo[1,5-a]pyrimidin-7-ylamino)cyclopentyl)methyl rel-sulfamate]"
2,98,"NS(=O)(=O)OC[C@H]1C[C@@H](Nc2ccnc3cc(-c4ccc5[nH]ccc5c4)nn23)[C@H](O)[C@@H]1O (relative stereo) [Compound I-074, (rac)-[(1R,2R,3S,4R)-2,3-dihydroxy-4-{[2-(1H-indol-5-yl)pyrazolo[1,5-a]pyrimidin-7-yl]amino}cyclopentyl]methyl rel-sulfamate]"
3,92,"NS(=O)(=O)OC[C@H]1C[C@@H](Nc2ccnc3cc(-c4c(Cl)cc(Cl)c5ccccc45)nn23)[C@H](O)[C@@H]1O [Compound I-117, (s.e.)-((1R,2R,3S,4R)-4-(2-(2,4-dichloronaphthalen-1-yl)pyrazolo[1,5-a]pyrimidin-7-ylamino)-2,3-dihydroxycyclopentyl)methyl sulfamate]"
4,99,"Cc1ccc2ccccc2c1-c1cc2nccc(N[C@@H]3C[C@H](COS(N)(=O)=O)[C@@H](O)[C@H]3O)n2n1 [Compound I-114, (s.e.)-((1R,2R,3S,4R)-2,3-dihydroxy-4-(2-(2-methylnaphthalen-1-yl)pyrazolo[1,5-a]pyrimidin-7-ylamino)cyclopentyl)methyl sulfamate]"
5,100,"NS(=O)(=O)OC[C@H]1C[C@@H](Nc2ccnc3cc(-c4cccc(-c5ccccn5)c4)nn23)[C@H](O)[C@@H]1O (relative stereo) [Compound I-036, (rac)-((1R,2R,3S,4R)-2,3-Dihydroxy-4-((2-(3-(pyridin-2-yl)phenyl)pyrazolo[1,5-a]pyrimidin-7-yl)amino)cyclopentyl)methyl rel-sulfamate]"
6,100,"NS(=O)(=O)OC[C@H]1C[C@@H](Nc2ccnc3cc(-c4cccc5[nH]ccc45)nn23)[C@H](O)[C@@H]1O (relative stereo) [Compound I-075, (rac)-((1R,2R,3S,4R)-4-(2-(1H-indol-4-yl)pyrazolo[1,5-a]pyrimidin-7-ylamino)-2,3-dihydroxycyclopentyl)methyl rel-sulfamate]"
7,100,"NS(=O)(=O)OC[C@H]1C[C@@H](Nc2ccnc3cc(-c4coc5ccccc45)nn23)[C@H](O)[C@@H]1O (relative stereo) [Compound I-049, (rac)-((1R,2R,3S,4R)-4-(2-(benzofuran-3-yl)pyrazolo[1,5-a]pyrimidin-7-ylamino)-2,3-dihydroxycyclopentyl)methyl rel-sulfamate]"
8,100,"NS(=O)(=O)OC[C@H]1C[C@@H](Nc2ccnc3cc(-c4ccc(Cl)c5ccccc45)nn23)[C@H](O)[C@@H]1O [Compound I-108, (s.e.)-[(1R,2R,3S,4R)-4-{[2-(4-chloro-1-naphthyl)pyrazolo[1,5-a]pyrimidin-7-yl]amino}-2,3-dihydroxycyclopentyl]methyl sulfamate]"
9,100,"Cc1ccc(-c2cc3nccc(N[C@@H]4C[C@H](COS(N)(=O)=O)[C@@H](O)[C@H]4O)n3n2)c2ccccc12 [Compound I-115, (s.e.)-((1R,2R,3S,4R)-2,3-dihydroxy-4-(2-(4-methylnaphthalen-1-yl)pyrazolo[1,5-a]pyrimidin-7-ylamino)cyclopentyl)methyl sulfamate]"
10,100,"NS(=O)(=O)OC[C@H]1C[C@@H](Nc2ccnc3cc(-c4ccc5c(c4)[nH]c4ccccc45)nn23)[C@H](O)[C@@H]1O (relative stereo) [Compound I-062, (rac)-[(1R,2R,3S,4R)-4-{[2-(9H-carbazol-2-yl)pyrazolo[1,5-a]pyrimidin-7-yl]amino}-2,3-dihydroxycyclopentyl]methyl rel-sulfamate]"
